Experiment: Pharmacokinetic studies in male CD-1 mice (plasma, IV and PO)
Assay type: in vivo, mouse
Conditions: for clearance / Vd / bioavailability / half-life / Cmax / concentration at 8 h / concentration at 24 h: male; for clearance / Vd / bioavailability: CD-1, plasma, mouse; for clearance / Vd / half-life: IV 2 mg/kg; for clearance: read-out: CI(mL/min/kg), compounds clearance following IV administration; for Vd: read-out: Vdss (L/kg), volume of distribution following IV administration; for bioavailability: PO 10 mg/kg vs IV 2 mg/kg; for half-life / Cmax / concentration at 8 h / concentration at 24 h: CD-1; for half-life / Cmax / concentration at 8 h / concentration at 24 h / IV plasma half-life (T1/2): mouse plasma; for half-life: read-out: IV T1/2 (converted); for Cmax / concentration at 8 h / concentration at 24 h: PO 10 mg/kg; for concentration at 8 h: read-out: Compound concentration at 8-hour, PO administration; for concentration at 24 h: read-out: Compound concentration at 24-hour, PO administration
Description: Animal experiments were carried out at Wuxi AppTec. Male 6-8 weeks old CDI mice were obtained from Hilltop Labs. Following arrival at Wuxi AppTec, mice were housed in animal rooms with environmental control (temperature: 20 to 26° C.; lighting: 12 hour light/dark cycle). Mice were fed with certified pellet diet (Certified Rodent Diet #5002 by LabDiet). Water was provided to the animals ad libitum. Mice were acclimated to the facility for at least 3 days prior to starting experiments.
Appropriate amount of test article formulated in 5% ethanol, 5% Tween-80 and 5% PEG-400, 85% water. Formulation was prepared on the day of dosing and dosed within 2 hours following preparation of formulations. Dose accuracy was determined by LC-MS/MS.
Dose formulation(s) were administered following facility SOPs. Dose volumes were determined individually prior to dosing based on animals' body weights.
About 40 μL of blood samples were collected via peripheral veins (e.g. saphenous veins) at each pre-defined time point. Blood samples were collected into tubes containing K2EDTA as anti-coagulant and kept on ice until centrifugation.
Blood samples were centrifuged at 4° C., 3000 g for 5 min within half an hour of collection. Plasma was transferred into polypropylene tubes or 96-well plates, promptly frozen on dry ice and stored at −70±10° C. until analysis by LC-MS/MS.
Test compound concentration in mouse plasma was determined with LC-MS/MS method using a calibration curve with at least 6 non-zero calibration standards.
The pharmacokinetics (PK) of the test article was analyzed using Phoenix WinNonlin software (version 8.3) and non-compartmental analysis model. Derived PK parameters include, but not limited to, C0, CLp, Vdss, Cmax, Tmax, T1/2, AUC(0-t), AUC(0-inf), MRT(0-t), MRT(0-inf) and % F (bioavailability).

| Structure (SMILES) | clearance [mL/min/kg] | Vd [L/kg] | bioavailability [%] | half-life [h] | Cmax [ng/mL] | concentration at 8 h [ng/mL] | concentration at 24 h [ng/mL] | IV plasma half-life (T1/2) [h] |
| --- | --- | --- | --- | --- | --- | --- | --- | --- |
| COCCN(c1ccccc1)C1C[C@@H]2CC[C@@H](C)[C@@](O)(O2)C(=O)C(=O)N2CCCC[C@H]2C(=O)OC([C@H](C)CC2CC[C@@H](O)C(OC)C2)CC[C@H](C)/C=C(\C)C(O)C(OC)C(=O)[C@H](C)C[C@H](C)/C=C/C=C/C=C/1C (stereo partly drawn) [Compound 69, (3S,6S,7E,9R,10R,12R,14S,15E,17E,19E,23S,26R,27R,34aS)-9,27-dihydroxy-3-((R)-1-((1S,3R,4R)-4-hydroxy-3-methoxycyclohexyl)propan-2-yl)-10-methoxy-21-((2-methoxyethyl)(phenyl)amino)-6,8,12,14,20,26-hexamethyl-5,6,9,10,12,13,14,21,22,23,24,25,26,27,32,33,34,34a-octadecahydro-3H-23,27-epoxypyrido[2,1-c][1]oxa[4]azacyclohentriacontine-1,11,28,29(4H,31H)-tetraone] | 0.176 | 0.228 | 30.7 | 15.5 | 12900 | 10000 | 4670 | 15.5 |
| CO[C@H]1C[C@@H]2CC[C@@H](C)[C@@](O)(O2)C(=O)C(=O)N2CCCC[C@H]2C(=O)O[C@H]([C@H](C)C[C@@H]2CC[C@@H](OCCO)[C@H](OC)C2)CC(=O)[C@H](C)/C=C(\C)[C@@H](O)[C@@H](OC)C(=O)[C@H](C)C[C@H](C)/C=C/C=C/C=C/1C [RAD001, everolimus, reference compound] | 0.934 | 0.433 | 26 | 5.85 | 7220 | 1960 | 273 | 5.85 |
